Tested on: Legionella pneumophila
Format: cell-based
Details: after THPS 15 mg/L, 60 min; 0.1% pyruvate and/or 1% glutamic acid in BCYE

Structure (SMILES)	ratio of number of culturable Legionella on supplemented medium to standard medium (BCYE)
N[C@@H](CCC(=O)O)C(=O)O [glutamic acid]	0.2
CC(=O)C(=O)O [pyruvate]	45
